Source: ChEMBL document CHEMBL1128903, “Atropisomeric carbamoyl type inhibitors of pancreatic cholesterol esterase” (Bioorg Med Chem Lett, 1996)
pKi: −log10 of the molar value. Values joined by “and” are separate entries in the source; they are usually repeats but may differ in a detail not shown here. Equal values may be shown once.

Assays:
[1] = target: T1, Bile salt-activated lipase (Bos taurus) (UniProt P30122)
T1 sequence (whole entry): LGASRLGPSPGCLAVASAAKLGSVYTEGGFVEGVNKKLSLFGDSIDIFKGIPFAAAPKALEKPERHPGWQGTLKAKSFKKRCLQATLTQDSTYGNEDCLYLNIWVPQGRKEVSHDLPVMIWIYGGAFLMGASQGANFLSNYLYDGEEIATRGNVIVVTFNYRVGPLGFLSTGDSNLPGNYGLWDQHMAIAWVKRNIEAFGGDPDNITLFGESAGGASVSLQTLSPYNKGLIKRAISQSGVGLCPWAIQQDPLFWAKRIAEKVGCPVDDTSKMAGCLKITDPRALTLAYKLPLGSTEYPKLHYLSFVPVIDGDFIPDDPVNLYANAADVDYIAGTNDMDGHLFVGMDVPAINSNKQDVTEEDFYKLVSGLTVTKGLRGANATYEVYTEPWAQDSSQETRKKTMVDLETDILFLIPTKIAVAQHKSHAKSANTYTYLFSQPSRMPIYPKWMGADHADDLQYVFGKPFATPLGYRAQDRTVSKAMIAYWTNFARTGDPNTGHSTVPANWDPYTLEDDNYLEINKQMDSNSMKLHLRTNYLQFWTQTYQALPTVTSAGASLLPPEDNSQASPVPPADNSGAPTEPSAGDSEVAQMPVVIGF
Description: Carbamylation constant (k2) for the Pancreatic cholesterol esterase-catalyzed hydrolysis of 4-nitrophenyl butyrate

[2] = target: T2, Bile salt-activated lipase (Bos taurus, UniProt P30122); test: Dissociation constant (KI) for the Pancreatic cholesterol esterase-catalyzed hydrolysis of 4-nitrophenyl butyrate
T2 sequence (P30122 whole entry): T1 sequence (whole entry)

[3] = target: T2, Bile salt-activated lipase; test: Bimolecular rate constant (ki) for the Pancreatic cholesterol esterase-catalyzed hydrolysis of 4-nitrophenyl butyrate

Compound | k2 [1] | Ki [2] | Bimolecular rate constant (ki) [3] | pKi [2]
CCCCNC(=O)Oc1ccc2ccccc2c1-c1c(OC(=O)NCCCC)ccc2ccccc12 | 0.00095 10e3 s-1 and 0.0016 10e3 s-1 and 0.0012 10e3 s-1 |  |  | 
CCCCNC(=O)Oc1ccc2ccccc2c1-c1c(O)ccc2ccccc12 | 0.01 10e3 s-1 and 0.007 10e3 s-1 and 0.006 10e3 s-1 | 800 nM (2×) and 1.3 µM | 12000 10e2 M-1 s-1 and 10000 10e2 M-1 s-1 and 5000 10e2 M-1 s-1 | 
CCCCNC(=O)Oc1ccc2ccccc2c1-c1c(OC(=O)CCC)ccc2ccccc12 | 0.0008 10e3 s-1 and 0.0006 10e3 s-1 (2×) |  | 40 10e2 M-1 s-1 and 80 10e2 M-1 s-1 and 60 10e2 M-1 s-1 | 4.70 and 5.05 and 5.00
